According to US20210259954A1, “CILIA-TARGETING NANOPARTICLES” (Chapman University, priority 2019, published 2021):

How the values were obtained:
[1] = tested on: Tie2Cre⋅Pkd2^flox/flox mice; assay: Working heart perfusion system, hearts of treated Pkd2 mice (Example 2); type: in vivo, mouse
Method: All mouse experiments were performed by two operators who were blinded to the experimental conditions. […] One-week-old Tie2Cre⋅Pkd2^WT/WT (with Cre activation; control group), Tie2Cre⋅Pkd2^flox/flox (without Cre activation; control group) or Tie2Cre⋅Pkd2^flox/flox (with Cre activation; experimental group) mice were intraperitoneally injected with 250 μg of tamoxifen in a 50-μL volume daily for five consecutive days.
The ex vivo measurements of heart parameters were recorded using a mouse working heart system from Emka Technologies to study heart function independently of neuronal innervation or humoural effects. This system collected data regarding the cardiac contractile strength, electrical heart propagation or ECG and other cardiac functions, including the HR, LVP, LVV, left atrial pressure (LAP), aortic out flow (AOF), stroke volume (SV), cardiac output (CO), end diastolic/systolic volume (Edv-Esv), rate of left atrial pressure raise (+dp/dt) and fall (−dt/dt), and the preload, afterload, and main aortic pressure. Heparin (100 units, IP), xylazine (10-15 mg/kg, IP), and ketamine (200-350 mg/kg, IP) were used to prevent blood coagulation in the coronary arteries and to anaesthetize the mice. After cannulation, the heart was perfused with Krebs-Ringer superfusion solution (in mM: 125 NaCl, 2.5 KCl, 1.25 NaH2PO4, 2 CaCl2, 1 MgCl2, 25 NaHCO3 and 25 glucose). Throughout the experiment, the solution was continuously bubbled with carbogen (95% O2 and 5% CO2) to reach pH 7.4 at 38.0° C. Stress tests were performed on the heart by perfusing epinephrine (4 μg/L) or diltiazem (0.08 μg/L). Cardiac function was plotted in a loop diagram showing the LVV-LVP relationship (volume-pressure loop).

[2] = Pharmacokinetics of fenoldopam in mice (Example 1); type: in vivo, mouse; conditions: 30-minute infusion vs bolus of fenoldopam-loaded CTNDDS
Method: The pharmacokinetics of different NPs treated mice were studied. […] All drugs were extracted from plasma samples and HPLC analysis performed. In the biodistribution studies, whole organs from the fluorescent-labelled NPs treated mice (heart, kidney, liver, spleen and lung) were collected, homogenized and measured for fluorescence intensity to assess the amount of NP distribution in different organs at 24- and 72-hours after treatments. For the in vivo toxicity studies, 200 μL of blood samples were collected from different treatments (PBS, CT-DAu-NPs or CT-PLGA-NPs). Biochemistry was performed using biochemical analyzer (VetScan VS2).

[3] = tested on: Tie2Cre⋅Pkd2^flox/flox mice; assay: Endothelial-specific Pkd2 mouse model, 8-week treatment (Example 2); type: in vivo
Method: Mouse models. All mouse experiments were performed by two operators who were blinded to the experimental conditions. All animal procedures were performed according to the University of California Irvine and Chapman University Animal Care and Use Committee Guidelines. One-week-old Tie2Cre⋅Pkd2^WT/WT (with Cre activation; control group), Tie2Cre⋅Pkd2^flox/flox (without Cre activation; control group) or Tie2Cre⋅Pkd2^flox/flox (with Cre activation; experimental group) mice were intraperitoneally injected with 250 μg of tamoxifen in a 50-μL volume daily for five consecutive days. A limited number of IFT88 mice was also used as a cilia-less model in this study. […] On the other hand, fenoldopam-alone (1 μg/kg/min) was perfused for 30 minutes every 72 hours for 8 weeks. […] Five minutes after the CT-Fe2O3-NP injection, a 1.35-T AlNiCo cylindrical magnet (VWR International) was placed at the posterior and anterior regions of the mouse for 10 minutes daily.
Mouse blood pressure measurements. […] Blood pressure was measured twice daily for the duration of the study after the initial three days of acclimating each mouse to the cuff. All measurements were performed by operators in a double-blind. At the end of the 12-week treatment, the haematology results including the BUN and plasma nitrate/nitrite measurements were examined. BUN assays were conducted using an Arbor Assays calorimetric Detection Kit. Plasma nitrate/nitrite concentrations were quantified using a Cayman nitrate/nitrite assay kit. All steps were performed according to the manufacturers' instructions.
H&E and Masson's trichrome staining. Sections of the zebrafish (whole body) and major mouse organs, including the hearts, kidneys, livers, spleens and lungs, were collected and subjected to H&E staining for zebrafish cysts and histopathology by fixation in 10% formalin. Then, the tissues were dehydrated in buffered formalin, ethanol, and xylene. Finally, the tissues were embedded in liquid paraffin, sectioned (4 μm), and stained with H&E for histological examinations. The pathology slices were observed and imaged using a KEYENCE-BZ-X710 microscope. Mouse heart sections were stained with Masson's trichrome to detect fibrosis using a Masson's Trichrome Stain Kit (Polysciences).

In the case of Oc1ccc(C2CNCCc3c2cc(O)c(O)c3Cl)cc1 (centres unmarked) [Fenoldopam, fenoldopam], the “CO, cardiac output” value ([1]; diltiazem stress) is reported as 1783 ± 32 µL/min, the “EDPVR, end-diastolic pressure volume relation” value ([1]; diltiazem stress) is reported as 0.14 ± 0.01 mmHg/μL and the “EF, ejection fraction” value ([1]; diltiazem stress) is reported as 49.5 ± 0.3%. For the same compound, the “ESPVR, end-systolic pressure volume relation” value ([1]; diltiazem stress) was 2.21 ± 0.03 mmHg/μL, the “HR, heart rate” value ([1]; diltiazem stress) was 94 ± 11 beat/min and the “LV EDP, end-diastolic pressure” value ([1]; diltiazem stress) was 5.7 ± 0.2 mmHg. The “LV EDV, end-diastolic volume” value ([1]; diltiazem stress) was 40.0 ± 0.4 µL, the “LV ESP, end-systolic pressure” value ([1]; diltiazem stress) was 35.5 ± 0.5 mmHg and the “LV ESV, end-systolic volume” value ([1]; diltiazem stress) was 20.2 ± 0.1 µL. The “LV Pmax, systolic pressure” value ([1]; diltiazem stress) was 44.7 ± 0.7 mmHg, the “SV, stroke volume” value ([1]; diltiazem stress) was 19.8 ± 0.3 µL and the “SW, stroke work” value ([1]; diltiazem stress) was 772 ± 10 mmHg · μL. The “dP/dtmax, maximum rate of LV pressure rise” value (shortened to “dP/dtmax, maximum rate”) ([1]; diltiazem stress) was 4020 ± 642 mmHg/s, the “dP/dtmin, maximum rate of LV pressure fall” value (“dP/dtmin, maximum rate” below) ([1]; diltiazem stress) was −1537 ± 97 mmHg/s and the “EDPVR, end-diastolic pressure volume relation” value ([1]; epinephrine stress) was 0.16 ± 0.01 mmHg/μL. For the same compound, the “EF, ejection fraction” value ([1]; epinephrine stress) was 77.7 ± 2.0%, the “ESPVR, end-systolic pressure volume relation” value ([1]; epinephrine stress) was 9.8 ± 0.88 mmHg/μL and the “HR, heart rate” value ([1]; epinephrine stress) was 216 ± 47 beat/min. For the same compound, the “LV EDP, end-diastolic pressure” value ([1]; epinephrine stress) was 6.4 ± 0.5 mmHg, the “LV EDV, end-diastolic volume” value ([1]; epinephrine stress) was 39.9 ± 0.1 µL and the “LV ESP, end-systolic pressure” value ([1]; epinephrine stress) was 64.2 ± 0.9 mmHg. The “LV ESV, end-systolic volume” value ([1]; epinephrine stress) was 8.9 ± 0.8 µL, the “LV Pmax, systolic pressure” value ([1]; epinephrine stress) was 85.6 ± 1.2 mmHg and the “SV, stroke volume” value ([1]; epinephrine stress) was 31.0 ± 0.8 µL. For the same compound, the “SW, stroke work” value ([1]; epinephrine stress) was 2569 ± 53 mmHg · μL, the “dP/dtmax, maximum rate” value ([1]; epinephrine stress) was 17130 ± 239 mmHg/s and the “dP/dtmin, maximum rate” value ([1]; epinephrine stress) was −3844 ± 278 mmHg/s. For the same compound, the “CO, cardiac output” value ([1]; vehicle) was 3402 ± 92 µL/min, the “EDPVR, end-diastolic pressure volume relation” value ([1]; vehicle) was 0.13 ± 0.01 mmHg/μL and the “EF, ejection fraction” value ([1]; vehicle) was 62.5 ± 0.2%. The “ESPVR, end-systolic pressure volume relation” value ([1]; vehicle) was 4.6 ± 0.04 mmHg/μL, the “HR, heart rate” value ([1]; vehicle) was 136 ± 26 beat/min and the “LV EDP, end-diastolic pressure” value ([1]; vehicle) was 5.0 ± 0.1 mmHg. The “LV EDV, end-diastolic volume” value ([1]; vehicle) was 40.0 ± 0.1 µL, the “LV ESP, end-systolic pressure” value ([1]; vehicle) was 52.2 ± 0.5 mmHg and the “LV ESV, end-systolic volume” value ([1]; vehicle) was 15.0 ± 0.1 µL. The “LV Pmax, systolic pressure” value ([1]; vehicle) was 69.7 ± 0.7 mmHg, the “SV, stroke volume” value ([1]; vehicle) was 25.0 ± 0.1 µL and the “SW, stroke work” value ([1]; vehicle) was 1616 ± 70 mmHg · μL. For the same compound, the “dP/dtmax, maximum rate” value ([1]; vehicle) was 7524 ± 71 mmHg/s, the “dP/dtmin, maximum rate” value ([1]; vehicle) was −1625 ± 27 mmHg/s and the “total plasma concentration of fenoldopam (area under the curve, one hour)” value [2] was “significantly higher”. The “acute blood pressure and heart rate” value ([3]; 60 minutes after infusion) was “immediate decrease in blood pressure, followed by reflex tachycardia”, the “blood pressure (SBP, MAP)” value ([3]; Pkd2 mice, every 72 hours for 8 weeks) was “did not result in an overall decrease in systemic blood pressure” and the mortality ([3]; Pkd2 mice, repeated infusions for 8 weeks) was 40%. For the same compound, the “duration of blood pressure decrease” value ([3]; after infusion) was “approximately one” and the cilia length ([3]; continuous infusion for 5 days) was “increased the cilia length”.
